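Briefly, cells in 96-well plates were exposed to five compound concentrations for 48 h, and endpoints were estimated by linear interpolation. At the GI50, growth is halved.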 Activity calls are given as the source filed them. Rule as the data show it: active = GI50 up to about 1.1 µM and inactive = higher.
Tests used:
Assay in all cases: growth of human tumour cells (NCI), 48 h
[1] = tested on: SW-620
[2] = tested on: ACHN
[3] = tested on: HL-60
[4] = tested on: SF-539
[5] = tested on: KM12
[6] = tested on: HT-29
[7] = tested on: U-251
[8] = tested on: HOP-62
[9] = tested on: OVCAR-5
[10] = tested on: OVCAR-8
[11] = tested on: 786-0
[12] = tested on: IGROV-1
[13] = tested on: NCI-H23
[14] = tested on: SK-MEL-2
[15] = tested on: SK-OV-3
[16] = tested on: A498

Measured: GI50

C[s+]1c2ccccc2c2ccccc21
inactive: [1] > 100 µM | [2] > 100 µM | [3] > 100 µM | [4] > 100 µM | [5] > 100 µM | [6] > 100 µM | [7] > 100 µM | [8] > 100 µM | [9] > 100 µM | [10] > 100 µM | [11] > 100 µM | [12] > 100 µM | [13] > 10 µM | [14] > 100 µM

O=C1c2ccccc2C(=O)N1CC#CCO
inactive: [1] > 100 µM | [2] > 100 µM | [3] > 100 µM | [4] > 100 µM | [5] > 100 µM | [15] 95.5 µM | [6] > 100 µM | [7] > 100 µM | [16] > 100 µM | [8] > 100 µM | [9] > 100 µM | [10] > 100 µM | [11] > 100 µM | [13] > 100 µM | [14] > 100 µM

CC[C@H](C)N(CCN)C(=O)c1cc2ccccc2c(-c2ccccc2Cl)n1
inactive: [1] 14.9 µM | [2] 14.9 µM | [3] 7.67 µM | [4] 2.15 µM | [5] 14.9 µM | [6] 7.74 µM | [7] 11.6 µM | [16] 4.07 µM | [8] 17.5 µM | [9] 14.7 µM | [10] 14.2 µM | [11] 4.49 µM | [12] 8.09 µM | [13] 12.8 µM | [14] 18.8 µM

CCN(CC)CCC(=O)NC1c2ccccc2Oc2c(C)cccc21 (stereo not drawn)
inactive: [1] > 100 µM | [2] > 100 µM | [3] > 100 µM | [4] > 100 µM | [15] > 100 µM | [6] > 100 µM | [7] > 100 µM | [8] > 100 µM | [9] > 100 µM | [10] > 100 µM | [11] > 100 µM | [12] > 100 µM | [13] > 100 µM

CCOC(=O)COc1ccc(OC)c2c1C(=O)CCC2
inactive: [1] > 100 µM | [2] > 100 µM | [3] > 100 µM | [4] > 100 µM | [15] > 100 µM | [6] > 100 µM | [7] > 100 µM | [16] > 100 µM | [10] > 100 µM | [12] > 100 µM | [13] > 100 µM
